We go through three compounds from US20210092955A1, “METHOD OF CONTROLLING HERBICIDE RESISTANT WEEDS IN CROPS” (SUMITIMO CHEMICAL COMPANY, LIMITED, priority 2018, published 2021).

Type in all cases: in vivo
Assay [1] has as its system Amaranthus palmeri having an Arg128Met mutation in PPO2. Nature of the assay: Foliar treatment 21 days after sowing (Example 3). To be noted: 10, 20, 40, or 80 g/ha foliar treatment 21 days after sowing; examined 14 days after the treatment. The source says: Amaranthus palmeri having an Arg128Met mutation in PPO2 and soybean are sown in a plastic pot. Then, the weeds and soybean are cultivated in a greenhouse. A compound X is applied in an amount of 10, 20, 40, or 80 g/ha by spraying 200 L/ha of an aqueous dilution containing the compound X to perform foliar treatment 21 days after the sowing. Then, the weeds and soybean are cultivated in a greenhouse to examine the effects on the weeds and phytotoxic effects on soybean 14 days after the treatment.

Assay [2] has the same test system. Nature of the assay: Soil surface treatment before sowing soybean (Example 1). The following applies: 10, 20, 40, or 80 g/ha on soil surface on day of weed sowing; soybean sown after 7 days; examined after 14 days. The source says:
Amaranthus palmeri having an Arg128Met mutation in PPO2 is sown in a plastic pot. On the same day, a compound X is applied to the surface of soil in an amount of 10, 20, 40, or 80 g/ha by spraying 200 L/ha of an aqueous dilution containing the […]. Then, the weeds are cultivated in a greenhouse and soybean seeds are sown after 7 days, to examine the effects on the weeds and phytotoxic effects on soybean after 14 days.

For assay [3] the test system is unchanged. Nature of the assay: Soil surface treatment on day of sowing weed and soybean (Example 2). To be noted: 10, 20, 40, or 80 g/ha on soil surface on day of sowing; examined after 21 days. The source says:
Amaranthus palmeri having an Arg128Met mutation in PPO2 and soybean are sown in a plastic pot. On the same day, a compound X is applied to the surface of soil in an amount of 10, 20, 40, or 80 g/ha by spraying 200 L/ha of an aqueous dilution containing the compound X. Then, the weeds and soybean are cultivated in a greenhouse to examine the effects on the weeds and phytotoxic effects on soybean after 21 days.

The subject of assay [4] is wild-type Amaranthus palmeri. Nature of the assay: Herbicidal effect, foliar spray in greenhouse pots (Example 4609). The following applies: rating 0 to 100, 25 g/ha, foliar spray 216 L/ha, 17 days after treatment. The source says:
(§1) Plastic pots each having a diameter of 8 cm and a height of 7 cm were filled with the soil and seedlings of Amaranthus palmeri having a Gly399Ala mutation in PPO2 (originated from Mississippi, USA) were planted. After cultivation in a greenhouse for 31 days, an aqueous spray liquid prepared by diluting a predetermined amount of a commercial saflufenacil formulation (suspension concentrate containing 29.74% of saflufenacil, manufactured by BASF Corp. under the trade name of Sharpen) with water was sprayed uniformly over the weed using a sprayer in an amount of 216 L/ha. Then, the weeds were cultivated in a greenhouse for 17 days, followed by examining the herbicidal effects. For comparison, Amaranthus palmeri having Gly210 deletion in PPO2 (originated from Illinois, USA) and commercially available wild-type Amaranthus palmeri were tested.

The test system of assay [5] is Amaranthus palmeri having a Gly399Ala mutation in PPO2. Described as above. To be noted: rating 0 to 100; 25 g/ha; foliar spray 216 L/ha; 17 days after treatment.
Source text: as §1

In assay [6] the test system is Amaranthus palmeri having Gly210 deletion in PPO2. Kind of assay: Herbicidal effect, foliar spray in greenhouse pots (Example 4609, comparison). To be noted: rating 0 to 100; 25 g/ha; foliar spray 216 L/ha; 17 days after treatment; known art comparison.
Source text: as §1

Assay [7] has as its system waterhemp having Gly210 deletion in PPO2. Nature of the assay: Herbicidal effect, foliar spray in greenhouse pots (Example 4610, comparison). The following applies: rating 0 to 100; 100 g/ha; foliar spray 200 L/ha; 4 days after treatment; known art comparison. The source says: (§2) Plastic pots each having a diameter of 8 cm and a height of 7 cm were filled with the soil and seedlings of Amaranthus palmeri having Arg128Gly mutation in PPO2 (originated from Arkansas, USA) were planted. After cultivaited in a greenhouse for 42 days, an aqueous spray liquid prepared by diluting a predetermined amount of trifludimoxazin formulation (emulsifiable concentrate obtained by mixing 20 parts of trifludimoxazin with 80 parts liquid cocktail (5:1 mixture of cyclohexanone and Sorpol 2680X (TOHO Chemical Industry Co., Ltd.))) with water, and its mixture with saflufenacil made by additionally diluting a predetermined amount of commercial saflufenacil formulation (suspension concentrate containing 29.74% of saflufenacil, manufactured by BASF Corp. under the trade name of Sharpen) were separately sprayed over the weed using a sprayer in an amount of 200 L/ha uniformly. Then, the weeds were cultivated in a greenhouse for 4 days, followed by examininig the herbicidal effects on the weeds. For comparison, waterhemp having Gly210 deletion in PPO2 (originated from Illinois, USA), commercially available wild-type waterhemp, and commercially available wild-type Amaranthus palmeri were tested.

The subject of assay [8] is wild-type waterhemp. The assay is described as above. The following applies: rating 0 to 100; 100 g/ha; foliar spray 200 L/ha; 4 days after treatment.
Source text: as §2

In assay [9] the test system is wild-type Amaranthus palmeri. Kind of assay: Herbicidal effect, foliar spray in greenhouse pots (Example 4610). To be noted: rating 0 to 100; 100 g/ha; foliar spray 200 L/ha; 4 days after treatment.
Source text: as §2

In assay [10] the test system is Amaranthus palmeri having Arg128Gly mutation in PPO2. Described as above. The following applies: rating 0 to 100; 100 g/ha; foliar spray 200 L/ha; 4 days after treatment.
Source text: as §2

On to `CCOC(=O)COc1ncccc1Oc1cc(-n2c(=O)cc(C(F)(F)F)n(C)c2=O)c(F)cc1Cl` [compound X, Ethyl [3-[2-chloro-4-fluoro-5-(1-methyl-6-trifluoromethyl-2,1-dioxo-1,2,3,1-tetrahydropyrimidine-3-yl)phenoxy]-2-pyridyloxy]acetate], for which the “effects on the weeds” value in assay [1], in assay [2] and in assay [3] was “valuable effect” in each case.
For the compound `CC(C)N(C)S(=O)(=O)NC(=O)c1cc(-n2c(=O)cc(C(F)(F)F)n(C)c2=O)c(F)cc1Cl` [Saflufenacil], the “herbicidal effect, Amaranthus palmeri Wild-type” value in [4] (Table 1) and in assay [4] (Table 2) was 100 throughout. Moreover, in assay [5], the “herbicidal effect, Amaranthus palmeri Gly399Ala mutation” value amounted to 100. Besides, the “herbicidal effect, Amaranthus palmeri Gly210 deletion” value in assay [6] worked out at 65.
For the compound `C#CCN1C(=O)C(F)(F)Oc2cc(F)c(-n3c(=O)n(C)c(=S)n(C)c3=O)cc21` [Trifludimoxazin], in assay [7], the “herbicidal effect, waterhemp Gly210 deletion” value was determined as 50. In [8], the “herbicidal effect, waterhemp Wild-type” value is 95. Also, the “herbicidal effect, Amaranthus palmeri Wild-type” value in assay [9] was 90. For the same compound, the “herbicidal effect, Amaranthus palmeri Arg128Gly mutation” value in assay [10] turned out to be 88.
